Measurements from patent US5171863A, “Intermediates for preparing 4-substituted 2-5(H)-furanones as anti-inflammatory agents” (Allergan, Inc., priority 1991, dated 1992).
Read-outs that look alike come from different tables or passages of the source.

Assays:
[1] = target: bee venom phospholipase A2 (Apis mellifera, UniProt P00630); assay: biochemical; details: read-out: IC50 (micromolar), Phospholipase A2 Assay
[2] = Isomerization upon standing; format: physicochemical
Calcium Channel = Calcium Channel (mobilization) Inhibition Assay; format: cell-based
Text: Calcium Channel (mobilization) Inhibition Assay
Polymorphonuclear leukocytes (PMNa), gastric glands, GH3 cells, A431 cells, spleen cells, human keratinocytes corneal cells, etc. were loaded with the Ca^2+ sensitive fluorescent dye, Fura-2. The appropriate cell type was chosen and the potency and efficacy of the anti-inflammatoryfuranones on calcium mobilization, calcium channel inhibition was quantitated. The methods used for A431 cells listed below are representative of those used for other cells.
A431 cells were detached using a 5-10 min trypsin-EDTA treatment whereas GH3 cells were treated 2 to 5 min with a 1% pancreatin solution. Cells were immediately washed twice in a 20 mM HEPES buffer (pH 7.4) containing 120 mM NaCl, 6 mM KCl, 1 mM MgSO4, 1 mg/ml glucose and 1 mg/ml pyruvate and 1.4 mM calcium (medium A). Approximately 5×10^6 cells were suspended in medium A and incubated with 4 uM fura-2-AM for 15 min at 37° C.
After washing the fura-2 loaded cells, the uptake of dye was checked using fluorescence microscopy and found to be evenly distributed in the cytosol of all cells. Fluorescence was continuously recorded with a Perkin-Elmer LS-5 spectrofluorometer. The excitation wavelength was set at 340 nm and emission wavelength set at 500 nm. The cell suspension was continually stirred, maintained at 37° C. and equilibrated for approximately 5 min before addition of various agents. [Ca^2+ i was calculated using the following formula: [formula]
All fluorescence values were measured relative to a EGTA-quenched signal determined as follows: F was the relative fluorescence measurement of the sample. Fmax was determined by lysing the cells with digitonin (100 ug/ml) in DMSO. After Fmax was determined the pH was adjusted to 8, with NaOH and Ca^2+ chelated with 3 mM EGTA to totally quench the fura-2 signal and obtain Fmin.
When quin-2- was used, cells were incubated with 10 uM quin-2- at 37° C. for 1 hour, washed and then used.
In the above-described phospholipase A2 (PLA2) and calcium^+ channel mobilization assays certain examplary compounds made from the synthetic intermediate compounds of the present invention had the following activities.

[3] = prior art; cited from earlier work
[4] = tested on: phosphoinositide-specific phospholipase C; details: reported, Bennett et al, Molecular Pharmacology 32:587-593 (1987); cited from earlier work
[5] = read-out: IC50 (umolar) (KCl regulated), Calcium Channel Inhibition Assay
[6] = read-out: IC50 (umolar) (TRH regulated), Calcium Channel Inhibition Assay

Chain of bee venom phospholipase A2 (P00630 34-167 limits assumed): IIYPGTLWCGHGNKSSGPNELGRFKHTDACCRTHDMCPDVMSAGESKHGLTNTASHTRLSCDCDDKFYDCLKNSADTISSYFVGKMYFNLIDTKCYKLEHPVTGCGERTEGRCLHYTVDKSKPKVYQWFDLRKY

| Structure (SMILES) | IC50 [1] [µM] | other results |
| --- | --- | --- |
| COCCOCOCC1=CC(=O)OC1O (stereo not drawn) [Compound 20] | > 1 |  |
| CCCCCCCCCCCCP(=O)(O)OCC1=CC(=O)OC1O (stereo not drawn) [Compound 21, 4-(Dodecylohosphonyloxymethyl)-5-hydroxy-2(5H)-furanone] | 0.03 |  |
| CCCCCCCCCCCCNC(=O)OCC1=CC(=O)OC1O (stereo not drawn) [Compound 22, 4-(N-Dodecylcarbamoyloxymethyl)-5-hydroxy-2(5H)-furanone] | 0.05 |  |
| CCCCCCCCCCCCOCC1=CC(=O)OC1O (stereo not drawn) [Compound 23] | 0.04 |  |
| CCOP(=O)(OCC)OCC1=CC(=O)OC1O (stereo not drawn) [Compound 24, 4-1-(Diethylphosphoryloxy)methyl-5-hydroxy-2(5H)-furanone] | 0.34 |  |
| CCCCCCCCCCCC(=O)NCC1=CC(=O)OC1O (stereo not drawn) [Compound 25, 4-(N-Dodecanoylaminomethyl)-5-hydroxy-2(5H)-furanone] | 0.26 |  |
| CCCCCCCCCCCCNC(=O)NCC1=CC(=O)OC1O (stereo not drawn) [Compound 26, 4-(N-Dodecylureido)methyl-5-hydroxy-2(5H)-furanone] | 0.13 |  |
| CCCCCCCCCCCCS(=O)(=O)NCC1=CC(=O)OC1O (stereo not drawn) [Compound 27, 4-(N-Dodecylsulfonamido)-methyl-5-hydroxy-2(5H)-furanone] | 0.04 |  |
| CCCCCCCCCCCCC(OC(C)=O)C1=CC(=O)OC1O (stereo not drawn) [Compound 28, 4(1-Acetoxytridecyl)-5-hydroxy-2(5H)-furanone] | 0.04 |  |
| CCCCCCCCCCCCC(NC(C)=O)C1=CC(=O)OC1O (stereo not drawn) [Compound 29] | 0.07 |  |
| CCCCCCCCCCCCC(NC(=O)C(F)(F)F)C1=CC(=O)OC1O (stereo not drawn) [Compound 30] | 0.06 |  |
| CCCCCCCCCCCCC(NS(C)(=O)=O)C1=CC(=O)OC1O (stereo not drawn) [Compound 31] | 0.05 |  |
| CCCCCCCCCCCCC(NC(=O)NC)C1=CC(=O)OC1O (stereo not drawn) [Compound 32, 4-[-1-(N-methylureido)tridecyl]-5-hydroxy-2(5H)-furanone] | 0.48 |  |
| CCCCCCCCCCCC(=O)NCC(O)C1=CC(=O)OC1O (stereo not drawn) [Compound 40, 4-(2-Undecanylamido-1-hydroxy)ethyl-5-hydroxy-2(5H)-furanone] | 0.28 |  |
| CCCCCCCCCCCC(=O)NCC(OC(C)=O)C1=CC(=O)OC1O (stereo not drawn) [Compound 41, 4-(1-Acetoxy-2-undecanylamido)ethyl-5-hydroxy-2(5H)-furanone] | 0.04 |  |
| CCCCCCCCCCCC(=O)NCC(OC(=O)CCCCCCCCCCC)C1=CC(=O)OC1O (stereo not drawn) [Compound 42, 4-(2-Undecanylamido-1-dodecanoyloxy)ethyl-5-hydroxy-2(5H)-furanone] | 0.03 |  |

| Structure (SMILES) | IC50 [1] [µM] | other results |
| --- | --- | --- |
| CCCCCCCCCCCCS(=O)(=O)NCC(OC(C)=O)C1=CC(=O)OC1O (stereo not drawn) [Compound 43, 4-[1-Acetoxy-2-(dodecanesulfonylamido)ethyl]-5-hydroxy-2(5H)-furanone] | 0.03 |  |
| CC(=O)OC(CNC(=O)CCCCCCCCCCC(=O)O)C1=CC(=O)OC1O (stereo not drawn) [Compound 44] | 0.09 |  |
| CCCCCCCCCCCC(=O)OC(CNC(=O)N1CCN(S(C)(=O)=O)CC1)C1=CC(=O)OC1O (stereo not drawn) [Compound 45] | 0.05 |  |
| CCCCCCCCCCCC(=O)OC(CNC(=O)N(CC)CC)C1=CC(=O)OC1O (stereo not drawn) [Compound 46, 4-[1-Dodecanoyloxy-2-(N',N'-diethyl)carboxyamido]ethyl-5-hydroxy-2(5H)-furanone] | 0.02 |  |
| CCCCCCCCCCCCSCC1=CC(=O)OC1O (stereo not drawn) [Compound 47, 4-Dodecanethiomethyl-5-hydroxy-2(5H)-furanone] | 0.06 |  |
| CCCCCCCCCCCC(=O)OCCCC1=CC(=O)OC1O (stereo not drawn) [Compound 50] | 0.5 |  |
| CCCCCCCCOC(=O)C=CC1=CC(=O)OC1O (stereo not drawn) [Compound 51, Octyl 3-(5-hydroxy-2-on-4-furyl)propen-2-oate] | 0.09 |  |
| CCCCCCCCCCCCC(OC(C)=O)C1=CC(=O)OC1(C)O (stereo not drawn) [Compound 60, 4-(1-Acetoxytridecyl)-5-hydroxy-5-methyl-2-furanone] | 0.06 | isomerization of epimers upon standing [2]: isomerizes upon standing |
| CCCCCCCCCCCCC(OC(C)=O)C1=C(C)C(=O)OC1O (stereo not drawn) [Compound 61, 4-(1-Acetoxytridecyl)-3-methyl-5-hydroxy-2(5H)-furanone] | > 1 |  |
| CCCCCCCCCCCCC(OC(=O)Nc1ccccc1)C1=CC(=O)OC1(C)O (stereo not drawn) [Compound 62, 5-Methyl-5-hydroxy-4-(1-phenylcarbamoyloxy)tridecyl-2-furanone] | 0.24 |  |
| CCCCCCCCC(OC(C)=O)C1=CCOC1=O (stereo not drawn) [Compound 70, 3-(1-Acetoxynonyl)-2(5H)-furanone] |  | IC50 (Calcium Channel; [5]): 3.4 µM; IC50 (Calcium Channel; [6]): 4.9 µM |
| CCCCCCCCCCCCC(O)C1=CCOC1=O (stereo not drawn) [Compound 71, 3-(1-Hydroxytridecyl)-2(5H)-furanone] |  | IC50 (Calcium Channel; [5]): 1.1 µM; IC50 (Calcium Channel; [6]): 2 µM |
| CCCCCCCCCCCCC(OC(C)=O)C1=CCOC1=O (stereo not drawn) [Compound 72, 3-(1-Acetoxytridecyl)-2(5H)-furanone] |  | IC50 (Calcium Channel; [5]): 0.88 µM; IC50 (Calcium Channel; [6]): 16.9 µM |
| CC1=C(CC/C(C)=C/CCC(C=O)=CC=CC2=CC(=O)OC2O)C(C)(C)CCC1 (stereo not drawn) [dehydro-seco-manoalide] |  | anti-inflammatory, immunosuppressive and analgesic properties [3]: anti-inflammatory activity |
| CC1=C(CC/C(C)=C/CCC2=CCC(C3=CC(=O)OC3O)OC2O)C(C)(C)CCC1 (stereo not drawn) [manoalide, reference compound] |  | inhibition of phosphoinositide-specific phospholipase C [4]: inhibition of phosphoinositide-specific phospholipase C; anti-inflammatory, immunosuppressive and analgesic properties [3]: anti-inflammatory,immunosuppressive and analgesic properties; IC50 (Calcium Channel; [5]): 1 µM; IC50 (Calcium Channel; [6]): 1 µM |
| CC1=C(CC/C(C)=C/CCC(C=O)=CCC(O)C2=CC(=O)OC2O)C(C)(C)CCC1 (stereo not drawn) [seco-manoalide] |  | anti-inflammatory, immunosuppressive and analgesic properties [3]: anti-inflammatory activity |
